Laboratory results taken from US20060135773A1, “Trisubstituted nitrogen modulators of tyrosine phosphatases” (priority 2004, published 2006).
Where a name gives a salt, the structure may show the parent alone.

Target: T1, PTP-1B (Homo sapiens, UniProt P18031)
T1 construct: PTP-1B (purified, 1 mg/mL) as a 1:250 dilution
T1 sequence (P18031 1-321 limits assumed): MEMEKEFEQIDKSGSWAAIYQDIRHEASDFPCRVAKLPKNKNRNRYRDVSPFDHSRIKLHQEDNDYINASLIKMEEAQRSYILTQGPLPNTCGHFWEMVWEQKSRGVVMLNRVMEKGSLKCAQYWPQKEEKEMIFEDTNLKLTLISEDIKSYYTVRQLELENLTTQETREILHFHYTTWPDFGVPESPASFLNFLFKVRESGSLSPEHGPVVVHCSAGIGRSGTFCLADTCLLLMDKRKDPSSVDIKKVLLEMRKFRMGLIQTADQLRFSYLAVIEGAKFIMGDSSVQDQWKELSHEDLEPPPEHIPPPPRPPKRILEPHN
Assay: pNPP tyrosine phosphatase inhibition assay, PTP-1B
Format: biochemical
Settings: pNPP assay, PTP-1B; read-out: Activity Class (IC50 ranges)
Summary of the method: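 Test compounds were screened at two final levels, 31.3 and 10 µM, against 4 µg/mL purified PTP-1B. The substrate was 10 mM p-nitrophenyl phosphate, with incubation for 10 min at 30°C before a K2CO3 quench. Activity was taken from A405.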

SMILES | IC50 [nM]
O=P(O)(O)C(F)(F)c1ccc(CN(Cc2ccc(-c3cccc(-c4nn[nH]n4)c3)cc2)S(=O)(=O)c2ccc(F)cc2Cl)cc1Cl [Compound 169, {[2-Chloro-4-({(2-chloro-4-fluoro-benzenesulfonyl)-[3′-(2H-tetrazol-5-yl)-biphenyl-4-ylmethyl]-amino}-methyl)-phenyl]-difluoro-methyl}-phosphonic acid] | < 99
COc1ccccc1S(=O)(=O)N(Cc1ccccc1)Cc1ccc(C(F)(F)P(=O)(O)O)c(Cl)c1 [Compound 170, [(4-{[Benzyl-(2-methoxy-benzenesulfonyl)-amino]-methyl}-2-chloro-phenyl)-difluoro-methyl]-phosphonic acid] | 250 to 499
COc1ccccc1S(=O)(=O)N(Cc1ccc(C(F)(F)P(=O)(O)O)c(Cl)c1)C(Cc1ccccc1)c1ccccc1 (centres unmarked) [Compound 171, [(2-Chloro-4-{[(1,2-diphenyl-ethyl)-(2-methoxy-benzenesulfonyl)-amino]-methyl}-phenyl)-difluoro-methyl]-phosphonic acid] | 2500 to 25000
COc1ccccc1S(=O)(=O)N(Cc1ccc(OCc2ccccc2)cc1)Cc1ccc(C(F)(F)P(=O)(O)O)c(Cl)c1 [Compound 172, [(4-{[(4-Benzyloxy-benzyl)-(2-methoxy-benzenesulfonyl)-amino]-methyl}-2-chloro-phenyl)-difluoro-methyl]-phosphonic acid] | 250 to 499
COc1ccccc1S(=O)(=O)N(Cc1ccc(C(F)(F)P(=O)(O)O)c(Cl)c1)Cc1ccccc1Oc1ccccc1 [Compound 173, [(2-Chloro-4-{[(2-methoxy-benzenesulfonyl)-(2-phenoxy-benzyl)-amino]-methyl}-phenyl)-difluoro-methyl]-phosphonic acid] | 100 to 249
COC(=O)c1ccc(-c2ccc(CN(Cc3ccc(C(F)(F)P(=O)(O)O)c(Cl)c3)S(=O)(=O)c3ccccc3OC)cc2)cc1F [Compound 174, 4′-{[[3-Chloro-4-(difluoro-phosphono-methyl)-benzyl]-(2-methoxy-benzenesulfonyl)-amino]-methyl}-3-fluoro-biphenyl-4-carboxylic acid methyl ester] | 100 to 249
CCOC(=O)c1cc(-c2ccc(CN(Cc3ccc(C(F)(F)P(=O)(O)O)c(Cl)c3)S(=O)(=O)c3ccccc3OC)cc2)ccc1Cl [Compound 175, 4-Chloro-4′-{[[3-chloro-4-(difluoro-phosphono-methyl)-benzyl]-(2-methoxy-benzenesulfonyl)-amino]-methyl}-biphenyl-3-carboxylic acid ethyl ester] | 250 to 499
COc1ccccc1S(=O)(=O)N(Cc1ccc(-c2ccc(Cl)c(C(=O)O)c2)cc1)Cc1ccc(C(F)(F)P(=O)(O)O)c(Cl)c1 [Compound 176, 4-Chloro-4′-{[[3-chloro-4-(difluoro-phosphono-methyl)-benzyl]-(2-methoxy-benzenesulfonyl)-amino]-methyl}-biphenyl-3-carboxylic acid] | < 99
COc1ccccc1S(=O)(=O)N(Cc1ccc(-c2ccc(C(=O)O)c(F)c2)cc1)Cc1ccc(C(F)(F)P(=O)(O)O)c(Cl)c1 [Compound 177, 4′-{[[3-Chloro-4-(difluoro-phosphono-methyl)-benzyl]-(2-methoxy-benzenesulfonyl)-amino]-methyl}-3-fluoro-biphenyl-4-carboxylic acid] | < 99
COc1ccccc1S(=O)(=O)N(Cc1ccc(C(F)(F)P(=O)(O)O)c(Cl)c1)Cc1ccccc1Br [Compound 178, [(4-{[(2-Bromo-benzyl)-(2-methoxy-benzenesulfonyl)-amino]-methyl}-2-chloro-phenyl)-difluoro-methyl]-phosphonic acid] | 100 to 249
COc1ccccc1S(=O)(=O)N(Cc1ccc(C(F)(F)P(=O)(O)O)c(Cl)c1)Cc1ccccc1-c1cccnc1 [Compound 179, [(2-Chloro-4-{[(2-methoxy-benzenesulfonyl)-(2-pyridin-3-yl-benzyl)-amino]-methyl}-phenyl)-difluoro-methyl]-phosphonic acid] | 100 to 249
COc1ccccc1S(=O)(=O)N(Cc1ccc(C(F)(F)P(=O)(O)O)c(Cl)c1)Cc1ccccc1-c1ccncc1 [Compound 180, [(2-Chloro-4-{[(2-methoxy-benzenesulfonyl)-(2-pyridin-4-yl-benzyl)-amino]-methyl}-phenyl)-difluoro-methyl]-phosphonic acid] | 100 to 249
COc1ccccc1S(=O)(=O)N(Cc1ccc(-c2ccc(Cl)c(C(=O)NO)c2)cc1)Cc1ccc(C(F)(F)P(=O)(O)O)c(Cl)c1 [Compound 181, [(2-Chloro-4-{[(4′-chloro-3′-hydroxycarbamoyl-biphenyl-4-ylmethyl)-(2-methoxy-benzenesulfonyl)-amino]-methyl}-phenyl)-difluoro-methyl]-phosphonic acid] | < 99
COC(=O)c1cccc(-c2ccc(CCN(Cc3ccc(C(F)(F)P(=O)(O)O)c(Cl)c3)S(=O)(=O)c3ccccc3OC)cc2)c1 [Compound 182, 4′-{2-[[3-Chloro-4-(difluoro-phosphono-methyl)-benzyl]-(2-methoxy-benzenesulfonyl)-amino]-ethyl}-biphenyl-3-carboxylic acid methyl ester] | 250 to 499
COc1cccc(-c2ccccc2CN(Cc2ccc(C(F)(F)P(=O)(O)O)c(Cl)c2)S(=O)(=O)c2ccccc2OC)c1 [Compound 183, [(2-Chloro-4-{[(2-methoxy-benzenesulfonyl)-(3′-methoxy-biphenyl-2-ylmethyl)-amino]-methyl}-phenyl)-difluoro-methyl]-phosphonic acid] | < 99
COc1ccccc1S(=O)(=O)N(Cc1ccc(C(F)(F)P(=O)(O)O)c(Cl)c1)Cc1ccccc1-c1cccc(O)c1 [Compound 184, [(2-Chloro-4-{[(3′-hydroxy-biphenyl-2-ylmethyl)-(2-methoxy-benzenesulfonyl)-amino]-methyl}-phenyl)-difluoro-methyl]-phosphonic acid] | 100 to 249
COC(=O)c1cccc(-c2cccc(CCN(Cc3ccc(C(F)(F)P(=O)(O)O)c(Cl)c3)S(=O)(=O)c3ccccc3OC)c2)c1 [Compound 185, 3′-{2-[[3-Chloro-4-(difluoro-phosphono-methyl)-benzyl]-(2-methoxy-benzenesulfonyl)-amino]-ethyl}-biphenyl-3-carboxylic acid methyl ester] | 250 to 499
COc1ccccc1S(=O)(=O)N(Cc1ccc(C(F)(F)P(=O)(O)O)c(Cl)c1)Cc1ccccc1-c1cccc(C(N)=O)c1 [Compound 186, [(4-{[(3′-Carbamoyl-biphenyl-2-ylmethyl)-(2-methoxy-benzenesulfonyl)-amino]-methyl}-2-chloro-phenyl)-difluoro-methyl]-phosphonic acid] | 100 to 249
COc1ccccc1S(=O)(=O)N(CCc1ccc(-c2cccc(C(=O)O)c2)cc1)Cc1ccc(C(F)(F)P(=O)(O)O)c(Cl)c1 [Compound 188, 4′-{2-[[3-Chloro-4-(difluoro-phosphono-methyl)-benzyl]-(2-methoxy-benzenesulfonyl)-amino]-ethyl}-biphenyl-3-carboxylic acid] | 250 to 499
COc1ccccc1S(=O)(=O)N(CCc1cccc(-c2cccc(C(=O)O)c2)c1)Cc1ccc(C(F)(F)P(=O)(O)O)c(Cl)c1 [Compound 189, 3′-{2-[[3-Chloro-4-(difluoro-phosphono-methyl)-benzyl]-(2-methoxy-benzenesulfonyl)-amino]-ethyl}-biphenyl-3-carboxylic acid] | 250 to 499
NC(=O)c1ccccc1S(=O)(=O)N(Cc1ccccc1)Cc1ccc(C(F)(F)P(=O)(O)O)c(Cl)c1 [Compound 192, [(4-{[Benzyl-(2-carbamoyl-benzenesulfonyl)-amino]-methyl}-2-chloro-phenyl)-difluoromethyl]-phosphonic acid] | 250 to 499
COc1ccccc1S(=O)(=O)N(Cc1ccc(-c2ccc3c(c2)C(=O)OC3)cc1)Cc1ccc(C(F)(F)P(=O)(O)O)c(Cl)c1 [Compound 197, 6-{4-[({[4-(difluorophosphonomethyl)-3-chlorophenyl]methyl}[(2-methoxyphenyl)sulfonyl]amino)methyl]phenyl}-3-hydroisobenzofuran-1-one] | 100 to 249
COc1ccccc1S(=O)(=O)N(Cc1ccc(-c2ccc(CO)c(C(=O)O)c2)cc1)Cc1ccc(C(F)(F)P(=O)(O)O)c(Cl)c1 [Compound 200, 5-{4-[({[4-(difluorophosphonomethyl)-3-chlorophenyl]methyl}[(2-methoxyphenyl)sulfonyl]amino)methyl]phenyl}-2-(hydroxymethyl)benzoic acid,trisodium salt] | 100 to 249
COc1ccccc1S(=O)(=O)N(Cc1ccc(C(F)(F)P(=O)(O)O)c(Cl)c1)CC12CC3CC(CC(C3)C1)C2 [Compound 201, (Adamantanylmethyl){[4-(difluorophosphonomethyl)-3-chlorophenyl]methyl}[(2-methoxyphenyl)sulfonyl]amine] | 250 to 499
COc1ccccc1S(=O)(=O)N(Cc1ccc(C(F)(F)P(=O)(O)O)c(Cl)c1)Cc1ccccc1N1CCCCC1 [Compound 208, [(2-Chloro-4-{[(2-methoxy-benzenesulfonyl)-(2-piperidin-1-yl-benzyl)-amino]-methyl}-phenyl)-difluoro-methyl]-phosphonic acid] | 250 to 499
COc1ccccc1S(=O)(=O)N(Cc1ccc(C(F)(F)P(=O)(O)O)c(Cl)c1)Cc1ccccc1OC(C)C [Compound 211, {[4-(difluorophosphonomethyl)-3-chlorophenyl]methyl}[(2-methoxyphenyl)sulfonyl]{[2-(methylethoxy)phenyl]methyl}amine] | 250 to 499
